Measured values published in PMC7583056, “Synthesis, Characterisation and In Vitro Anticancer Activity of Catalytically Active Indole-Based Half-Sandwich Complexes” (Molecules, 2020).

Legend:
[1] = Transfer hydrogenation: reduction of NAD+ with formate as hydride donor (1H-NMR); conditions: for TOF (turnover frequency) for the reduction of NAD+: NAD+ 9 mol. equiv., formate 28 mol. equiv., pH* 7.4 ± 0.2, 310 K, complex 1.1 mM in MeOD/D2O (1:1 v/v)
Method: The ability of complexes 1–4 to oxidise NADH was investigated. The ^1H-NMR spectra show an increase of the NAD^+ signals over time (Figure 3). However, the reaction is very slow and after 8 h only around 10% of NADH is converted to NAD^+. […] The possibility of using compounds 1–4 as a transfer hydrogenation catalyst to reduce NAD^+ was investigated (Materials and Methods section). Compounds 1–4 reduced NAD^+ with turnover frequencies (TOF) between 6 and 15 h^−1 (Table 1), which is within the range of previously reported compounds [51, 53, 74, 75, 76]. Remarkably, under the conditions here reported (MeOD/D2O 1:1 v/v, 310 K, pH* 7.4 ± 0.2), the iridium complex 2 reduced nine molar equivalents of NAD^+ within the initial 10 min. However, no TOF could be calculated for this compound, owing to the speed of the reaction.
Transfer hydrogenation reactions with complexes 1–4, formate, and NAD^+ were studied by mixing a solution of the corresponding complex (2.2 mM, MeOD), sodium formate (137 mM, D2O) and NAD^+ (44 mM, D2O). Final concentrations of 1.1 mM for the complex, 10 mM for NAD^+ and 30 mM for NaHCO2 were obtained (molar ratio 1:9:28). The pH of the mixture was adjusted to 7.4 ± 0.2. ^1H-NMR spectra were recorded at 310 K every 5 min until completion of the reaction.
Molar ratios of NAD^+ and NADH were determined by integrating the area under the signals associated with NAD^+ (9.33 ppm) and 1,4-NADH (6.96 ppm). The turnover number (TON) for the reaction was calculated as follows: (1) TONI6.96/I6.96+[…][NAD^+]0/[Catalyst] where In is the integral of the signal at n ppm and [NAD^+]0 is the concentration of NAD^+ at the start of the reaction.

Solubility as observed = type: physicochemical; conditions: MeOD/D2O 1:1 v/v, 1.1 mM
Method: Owing to the limited aqueous solubility of the complexes, all the reactivity experiments were performed using a mixture MeOD/D2O (1:1 v/v) as a solvent. The stability of complexes 1–4 in MeOD/D2O was studied via ^1H-NMR spectroscopy over a period of 24 h. […] The stability of complexes 1–4 in dimethylsulfoxide (DMSO;1.1 mM) was also studied by ^1H-NMR spectroscopy over a period of 24 h (Figure S1). […] The ligand ind-py is also stable in MeOD/D2O over 24 h (Figure S1E).

9-ethylguanine (9-EtG) = assay: Binding constant towards 9-EtG by 1H-NMR titration; conditions: complex 1.1 mM in MeOD/D2O (1:1 v/v), non-linear fit
Method: Binding constant of complexes 1, 3 and 4 with 9-EtG were calculated using the non-linear ThordarsonFittingProgram (Table 1). The binding constant for complex 2 was not calculated due to solubility issues. The magnitude of the binding constants (10^3–10^4 M^−1) is low compared to the usually observed complexation constants in coordination chemistry (>>10^6 M^−1), and is in the range of binding constants observed in host-guest inorganic chemistry (e.g., via non-covalent interactions between a metalla-cage and an aromatic planar guest molecule).
The reactions of complexes 1–4 with 9-ethylguanine (9-EtG) and 9-methyladenine (9-MetA) were studied. MeOD solutions of complexes 1–4 (2.2 mM) were mixed with a solution of the corresponding nucleobase in D2O (4.4 mM) and the pH adjusted to 7.4 ± 0.2. Final concentrations of 1.1 mM for the complex and 2.2 mM for the nucleobase were obtained. ^1H-NMR spectra of the resulting mixture were recorded at t ≤ 10 min, 5 h and 24 h in MeOD/D2O (1:1 v/v).
A titration using 9-EtG at increasing concentrations was performed and the resulting samples were analysed using ^1H-NMR spectroscopy. Binding constants were calculated using the non-linear ThordarsonFittingProgram by plotting the chemical shift of the complex versus the concentration of 9-EtG. Alternatively, binding constant for complexes 3 and 4 was obtained by plotting the ratio of 9-EtG adduct/complex against the concentration of 9-EtG.

| Compound | Time to reduce nine molar equivalents of NAD+ ([1]; MeOD/D2O 1:1 v/v, 310 K, pH* 7.4 ± 0.2, formate 28 mol. equiv.) [min] | Solubility in MeOD/D2O (in words) (Solubility as observed) | K9-EtG (binding constant towards 9-EtG) (9-ethylguanine (9-EtG)) [M⁻¹] | TOF (turnover frequency) for the reduction of NAD+ [1] [h⁻¹] | TOF (printed in Figure 3C) ([1]; 28 mol. equiv. formate, 9 mol. equiv. NAD+, MeOD/D2O 1/1 v/v, pH 7.4, 310 K, in 1/h) |
| --- | --- | --- | --- | --- | --- |
| Cc1c(C)c(C)[c-](C)c1C.[Cl-].[Ir+3].c1ccc(-c2cc3ccccc3[n-]2)nc1 [complex 2, [Cp*Ir(ind-py)Cl]] | ≤ 10 | poor solubility | – | – | – |
| Cc1ccc(C(C)C)cc1.[Cl-].[Ru+2].c1ccc(-c2cc3ccccc3[n-]2)nc1 [complex 3, [(p-cym)Ru(ind-py)Cl]] | – | – | 71600 | 7.95 ± 0.81 | – |
| Cc1ccc(C(C)C)cc1.[Cl-].[Os+2].c1ccc(-c2cc3ccccc3[n-]2)nc1 [complex 4, [(p-cym)Os(ind-py)Cl]] | – | – | 95400 | 5.74 ± 0.35 | – |
| Cc1c(C)c(C)[c-](C)c1C.[Cl-].[Rh+3].c1ccc(-c2cc3ccccc3[n-]2)nc1 [complex 1, [Cp*Rh(ind-py)Cl]] | – | – | 25600 | 14.6 ± 0.7 | 14.63 ± 0.78 |
